pIC50: −log10 of the molar value.
Columns and labels:
[1] = biological target: T1, 17-beta-hydroxysteroid dehydrogenase type 3 (Homo sapiens, UniProt P37058); experiment: Inhibition of human 17beta-HSD3 expressed in HeLa cells; type: cell-based
T1 sequence (P37058 whole entry): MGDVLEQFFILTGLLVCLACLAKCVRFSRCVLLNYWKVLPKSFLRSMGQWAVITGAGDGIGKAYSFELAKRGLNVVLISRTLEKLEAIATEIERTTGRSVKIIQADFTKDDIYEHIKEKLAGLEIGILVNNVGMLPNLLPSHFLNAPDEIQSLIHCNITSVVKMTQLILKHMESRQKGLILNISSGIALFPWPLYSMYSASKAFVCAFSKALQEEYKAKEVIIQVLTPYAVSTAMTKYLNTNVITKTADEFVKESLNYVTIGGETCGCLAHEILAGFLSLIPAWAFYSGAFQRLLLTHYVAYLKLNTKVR

[2] = biological target: T2, Androgen receptor (Homo sapiens, UniProt P10275); experiment: Antagonist activity at AR by reporter gene assay; type: functional; conditions: for pIC50: read-out: IC50
T2 sequence (P10275 whole entry): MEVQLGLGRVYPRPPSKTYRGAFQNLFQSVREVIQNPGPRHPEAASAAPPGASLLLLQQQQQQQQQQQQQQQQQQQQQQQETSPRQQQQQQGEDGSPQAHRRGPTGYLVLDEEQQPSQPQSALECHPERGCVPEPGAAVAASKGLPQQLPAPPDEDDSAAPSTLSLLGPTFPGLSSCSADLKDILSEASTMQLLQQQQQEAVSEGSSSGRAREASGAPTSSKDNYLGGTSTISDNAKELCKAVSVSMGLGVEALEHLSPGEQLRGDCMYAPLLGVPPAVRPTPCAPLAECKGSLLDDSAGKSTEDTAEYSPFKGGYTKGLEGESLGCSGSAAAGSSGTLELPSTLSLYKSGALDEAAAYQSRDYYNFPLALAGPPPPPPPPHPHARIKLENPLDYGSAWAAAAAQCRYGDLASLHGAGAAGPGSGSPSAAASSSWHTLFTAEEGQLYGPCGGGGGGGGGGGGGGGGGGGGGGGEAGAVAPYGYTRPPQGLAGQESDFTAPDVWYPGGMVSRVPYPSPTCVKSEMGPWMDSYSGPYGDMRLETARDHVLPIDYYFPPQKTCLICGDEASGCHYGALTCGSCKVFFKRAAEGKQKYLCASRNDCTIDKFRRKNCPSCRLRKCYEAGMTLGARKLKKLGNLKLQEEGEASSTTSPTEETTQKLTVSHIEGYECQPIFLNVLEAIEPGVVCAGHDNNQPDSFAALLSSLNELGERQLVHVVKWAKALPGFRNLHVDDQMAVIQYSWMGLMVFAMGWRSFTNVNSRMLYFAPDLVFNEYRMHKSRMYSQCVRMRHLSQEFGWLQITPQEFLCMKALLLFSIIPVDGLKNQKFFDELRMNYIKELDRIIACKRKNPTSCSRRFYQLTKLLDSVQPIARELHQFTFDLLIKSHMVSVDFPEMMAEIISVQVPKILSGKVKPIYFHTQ

[3] = biological target: T2, Androgen receptor; experiment: Agonist activity at AR by reporter gene assay; type: functional
[4] = biological target: T3, Estrogen receptor (Homo sapiens, UniProt P03372); experiment: Antagonist activity at ER by reporter gene assay; type: functional
T3 sequence (P03372 whole entry): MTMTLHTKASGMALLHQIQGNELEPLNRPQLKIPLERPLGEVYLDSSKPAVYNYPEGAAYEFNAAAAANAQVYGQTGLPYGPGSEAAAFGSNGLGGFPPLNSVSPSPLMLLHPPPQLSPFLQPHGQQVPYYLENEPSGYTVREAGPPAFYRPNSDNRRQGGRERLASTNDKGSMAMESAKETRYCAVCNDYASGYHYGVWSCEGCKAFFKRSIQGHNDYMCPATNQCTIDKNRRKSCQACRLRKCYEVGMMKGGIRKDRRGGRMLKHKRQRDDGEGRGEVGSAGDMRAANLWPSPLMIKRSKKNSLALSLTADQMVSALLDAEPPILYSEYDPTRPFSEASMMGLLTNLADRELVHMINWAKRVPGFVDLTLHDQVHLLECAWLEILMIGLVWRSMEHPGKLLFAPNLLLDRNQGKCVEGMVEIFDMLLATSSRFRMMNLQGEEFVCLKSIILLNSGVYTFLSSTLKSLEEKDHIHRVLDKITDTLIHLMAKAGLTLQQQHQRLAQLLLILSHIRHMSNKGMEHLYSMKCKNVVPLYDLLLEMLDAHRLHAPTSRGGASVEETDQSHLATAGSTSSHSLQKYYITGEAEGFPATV

[5] = biological target: T3, Estrogen receptor; experiment: Agonist activity at ER by reporter gene assay; type: functional; conditions: for pIC50: read-out: IC50
[6] = biological target: T4, Glucocorticoid receptor (Homo sapiens, UniProt P04150); experiment: Antagonist activity at GR by reporter gene assay; type: functional
T4 sequence (P04150 whole entry): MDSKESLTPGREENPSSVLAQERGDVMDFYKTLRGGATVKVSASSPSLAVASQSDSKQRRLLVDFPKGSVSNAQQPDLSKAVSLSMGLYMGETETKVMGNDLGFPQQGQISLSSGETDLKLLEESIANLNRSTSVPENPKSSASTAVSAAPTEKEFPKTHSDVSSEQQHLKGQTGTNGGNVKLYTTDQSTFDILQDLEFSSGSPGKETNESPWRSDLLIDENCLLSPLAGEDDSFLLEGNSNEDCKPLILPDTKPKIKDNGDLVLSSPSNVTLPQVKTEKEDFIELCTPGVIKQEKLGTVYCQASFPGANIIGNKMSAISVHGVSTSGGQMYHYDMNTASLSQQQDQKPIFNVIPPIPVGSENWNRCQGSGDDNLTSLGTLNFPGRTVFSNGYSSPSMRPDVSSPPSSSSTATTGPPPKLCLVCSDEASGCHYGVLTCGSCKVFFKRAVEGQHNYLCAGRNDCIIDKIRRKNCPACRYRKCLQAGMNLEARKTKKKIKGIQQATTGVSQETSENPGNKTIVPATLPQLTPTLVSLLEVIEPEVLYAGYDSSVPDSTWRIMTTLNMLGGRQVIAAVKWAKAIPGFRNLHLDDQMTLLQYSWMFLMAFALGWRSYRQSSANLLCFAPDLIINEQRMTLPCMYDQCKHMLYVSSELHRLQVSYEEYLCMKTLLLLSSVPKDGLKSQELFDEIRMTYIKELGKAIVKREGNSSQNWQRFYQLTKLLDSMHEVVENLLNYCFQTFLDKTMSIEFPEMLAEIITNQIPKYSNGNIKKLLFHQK

[7] = biological target: T4, Glucocorticoid receptor; experiment: Agonist activity at GR by reporter gene assay; type: functional
[8] = biological target: T5, 17-beta-hydroxysteroid dehydrogenase type 1 (Homo sapiens, UniProt P14061); experiment: Inhibition of 17beta-HSD1 by human cell based assay
T5 sequence (P14061 whole entry): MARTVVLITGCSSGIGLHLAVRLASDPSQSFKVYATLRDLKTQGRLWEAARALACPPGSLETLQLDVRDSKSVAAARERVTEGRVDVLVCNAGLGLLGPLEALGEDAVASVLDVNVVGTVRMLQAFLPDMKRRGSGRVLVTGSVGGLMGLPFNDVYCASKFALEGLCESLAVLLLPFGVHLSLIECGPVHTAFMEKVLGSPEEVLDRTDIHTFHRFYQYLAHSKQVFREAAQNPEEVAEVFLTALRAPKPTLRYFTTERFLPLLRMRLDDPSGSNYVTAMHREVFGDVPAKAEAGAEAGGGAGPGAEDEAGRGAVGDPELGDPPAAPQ

[9] = biological target: T6, 17-beta-hydroxysteroid dehydrogenase type 2 (Homo sapiens, UniProt P37059); experiment: Inhibition of 17beta-HSD2 by human cell based assay
T6 sequence (P37059 whole entry): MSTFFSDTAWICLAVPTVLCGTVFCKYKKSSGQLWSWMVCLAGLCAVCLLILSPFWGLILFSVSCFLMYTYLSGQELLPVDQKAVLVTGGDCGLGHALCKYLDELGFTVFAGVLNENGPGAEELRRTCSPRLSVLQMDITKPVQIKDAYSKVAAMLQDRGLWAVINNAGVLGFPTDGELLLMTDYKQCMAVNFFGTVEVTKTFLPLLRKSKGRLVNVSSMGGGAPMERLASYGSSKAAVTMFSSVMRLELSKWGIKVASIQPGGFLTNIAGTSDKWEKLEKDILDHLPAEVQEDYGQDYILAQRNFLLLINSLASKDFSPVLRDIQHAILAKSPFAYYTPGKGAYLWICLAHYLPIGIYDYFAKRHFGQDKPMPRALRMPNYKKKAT

SMILES | pIC50 [1] | also measured
Cc1c(C)c2ccc(O)cc2oc1=O | 6.68 | –
O=c1cc(-c2ccccc2)c2ccc(O)cc2o1 | 6.00 | –
O=c1cc(CSc2ncccn2)c2ccc(O)cc2o1 | 6.00 | –
O=c1cc(CSc2ccc(C(F)(F)F)cn2)c2ccc(O)cc2o1 | 6.64 | –
O=c1oc2cc(O)ccc2c(C(F)(F)F)c1CSc1ccccn1 | 6.49 | –
CCCc1c(C)c2ccc(O)cc2oc1=O | 6.62 | –
Cc1c(Cc2ccccc2)c(=O)oc2cc(O)ccc12 | 6.70 | –
COCc1cc(=O)oc2cc(O)ccc12 | 5.30 | –
O=c1cc(Cc2ccccc2)c2ccc(O)cc2o1 | 5.00 | –
O=c1cc(COc2ccccc2)c2ccc(O)cc2o1 | 5.00 | –
O=c1cc(CNc2ccccc2)c2ccc(O)cc2o1 | 5.40 | –
O=c1cc(CSc2cccs2)c2ccc(O)cc2o1 | 6.38 | –
Cc1cc2ccc(O)cc2oc1=O | 6.00 | –
Cc1c(C#N)c(=O)oc2cc(O)ccc12 | 6.00 | –
Cc1cccc(OCCc2cc(=O)oc3cc(O)ccc23)n1 | 6.00 | –
CN(Cc1cc(=O)oc2cc(O)ccc12)c1ccccc1 | 5.22 | –
O=c1cc(CSc2ccncc2)c2ccc(O)cc2o1 | 5.30 | –
Cc1c(F)c(=O)oc2cc(O)ccc12 | 6.00 | –
Cc1cc(=O)oc2cc(O)ccc12 [HYMECROMONE] | 6.00 | –

Further compounds by rising pIC50 [1], results first:

pIC50 [1] | SMILES | also measured
6.70 | O=c1cc(CSc2nncs2)c2ccc(O)cc2o1 | –
6.72 | O=c1cc(C(F)(F)F)c2ccc(O)cc2o1 | –
7.00 | Cc1c(Cl)c(=O)oc2cc(O)ccc12 | –
7.00 | CCc1cc(=O)oc2cc(O)ccc12 | –
7.02 | O=c1cc(CSC2NCCS2)c2ccc(O)cc2o1 (stereo not given) | –
7.03 | O=c1cc(CSc2ccccc2)c2ccc(O)cc2o1 | –
7.04 | Cn1ccnc1SCc1cc(=O)oc2cc(O)ccc12 | –
7.06 | O=c1cc(CSc2ccc([N+](=O)[O-])cn2)c2ccc(O)cc2o1 | –
7.23 | CCCc1cc(=O)oc2cc(O)ccc12 | –
7.33 | Cc1cccc(SCc2c(Cl)c(=O)oc3cc(O)ccc23)n1 | –
7.52 | O=c1oc2cc(O)ccc2c(C(F)(F)F)c1Cc1ccccc1 | pIC50 [2]: 5.22; IC50 [3]: Not Active; IC50 [4]: Not Active; pIC50 [5]: 6.00; IC50 [6]: Not Active; IC50 [7]: Not Active; IC50 [8]: Not Active; IC50 [9]: Not Active
7.57 | Cc1cccc(SCc2c(F)c(=O)oc3cc(O)ccc23)n1 | –
7.70 | O=c1cc(CCc2ccccc2)c2ccc(O)cc2o1 | –
8.00 | O=c1cc(CSc2nccs2)c2ccc(O)cc2o1 | –
8.10 | Cc1cccc(CCc2cc(=O)oc3cc(O)ccc23)n1 | IC50 [2]: Not Active; IC50 [3]: Not Active; IC50 [4]: Not Active; IC50 [5]: Not Active; IC50 [6]: Not Active; IC50 [7]: Not Active; IC50 [8]: Not Active; IC50 [9]: Not Active
8.52 | O=c1cc(CSc2ccccn2)c2ccc(O)cc2o1 | –
8.82 | Cc1cccc(SCc2cc(=O)oc3cc(O)ccc23)n1 | pIC50 [2]: 4.30; IC50 [3]: Not Active; IC50 [4]: Not Active; pIC50 [5]: 4.30; IC50 [6]: Not Active; IC50 [7]: Not Active; IC50 [8]: Not Active; IC50 [9]: Not Active

— ChEMBL document CHEMBL1153171, “Coumarins as novel 17beta-hydroxysteroid dehydrogenase type 3 inhibitors for potential treatment of prostate cancer” (Bioorg Med Chem Lett, 2010)
